From US10376520B2, “Methods for the treatment of cardiovascular disorders” (Galapagos NV, priority 2015, dated 2019)

Test system: RA patients
Test: Total cholesterol determination, Study 1 (RA patients with inadequate response to methotrexate, add-on to MTX)
Format: in vivo, human
Experimental: Double-blind, placebo-controlled add on study in subjects with moderately to severely active RA who have an inadequate response to methotrexate (MTX) (oral or parenteral).
595 subjects randomized to one of 6 dose regimens of Compound 1 (dosed as a [Compound 1:HCl:3H2O]) (3 dose levels administered either once or twice daily) or placebo on top of each subject's stable dose of MTX.
Compound 1 (dosed as a [Compound 1:HCl:3H2O]) is dosed for twelve weeks once daily (q.d.) (50 mg, 100 mg or 200 mg) or twice daily (b.i.d.) (25 mg, 50 mg or 100 mg); or placebo.
At Week 12, the subjects on placebo who have not achieved 20% improvement in swollen joint count (SJC66) and tender joint count (TJC68) are re-randomized automatically to receive Compound 1 (dosed as a [Compound 1:HCl:3H2O]) either at 100 mg q.d. or 50 mg b.i.d. doses in a blinded fashion; subjects on 50 mg q.d. who have not achieved 20% improvement in SJC66 and TJC68 will be assigned to 100 mg q.d. and subjects on 25 mg b.i.d. that have not achieved a 20% improvement in SJC66 and TJC68 will be assigned to 50 mg b.i.d. Subjects who switch treatment at week 12 are handled as if they discontinued at week 12 for the purpose of statistical analysis, whereas subjects in the other groups will maintain their randomized treatment until Week 24.
This method is based on the determination of Δ^4 cholestenone after enzymatic cleavage of the cholesterol ester by cholesterol esterase, conversion of cholesterol by cholesterol oxidase, and subsequent measurement by the Trinder reaction of the hydrogen peroxide formed (Allain et al., 1974).
Cholesterol esters are cleaved by the action of cholesterol esterase to yield free cholesterol and fatty acids. Cholesterol oxidase then catalyzes the oxidation of cholesterol to cholest-4-en-3-one and hydrogen peroxide. In the presence of peroxidase, the hydrogen peroxide formed effects the oxidative coupling of phenol and 4-aminophenazone to form a red quinone-imine dye. The color intensity of the dye formed is directly proportional to the cholesterol concentration. It is determined by measuring the increase in absorbance.
Human serum and plasma samples cholesterol determination was done on a Roche/Hitachi Cobas c 701/702 system which automatically calculate the analyte concentration of each sample.

[1] = Study 1 12 weeks results, 2 x 25 mg b.i.d., week 2
[2] = Study 1 12 weeks results, 2 x 25 mg b.i.d., week 4
[3] = Study 1 12 weeks results, 2 x 25 mg b.i.d., week 8
[4] = Study 1 12 weeks results, 2 x 25 mg b.i.d., week 12
[5] = Study 1 12 weeks results, 2 x 50 mg b.i.d., week 1
[6] = Study 1 12 weeks results, 2 x 50 mg b.i.d., week 2
[7] = Study 1 12 weeks results, 2 x 50 mg b.i.d., week 4
[8] = Study 1 12 weeks results, 2 x 50 mg b.i.d., week 8
[9] = Study 1 12 weeks results, 2 x 50 mg b.i.d., week 12
[10] = Study 1 12 weeks results, 2 x 100 mg b.i.d., week 1
[11] = Study 1 12 weeks results, 2 x 100 mg b.i.d., week 2
[12] = Study 1 12 weeks results, 2 x 100 mg b.i.d., week 4
[13] = Study 1 12 weeks results, 2 x 100 mg b.i.d., week 8
[14] = Study 1 12 weeks results, 2 x 100 mg b.i.d., week 12
[15] = Study 1 24 weeks results, continued 50 mg q.d., week 1
[16] = Study 1 24 weeks results, continued 50 mg q.d., week 2
[17] = Study 1 24 weeks results, continued 50 mg q.d., week 4
[18] = Study 1 24 weeks results, continued 50 mg q.d., week 8
[19] = Study 1 24 weeks results, continued 50 mg q.d., week 12
[20] = Study 1 24 weeks results, continued 50 mg q.d., week 16
[21] = Study 1 24 weeks results, continued 50 mg q.d., week 20
[22] = Study 1 24 weeks results, continued 50 mg q.d., week 24

In the case of `O=C(Nc1nc2cccc(-c3ccc(CN4CCS(=O)(=O)CC4)cc3)n2n1)C1CC1` [Compound 1, cyclopropanecarboxylic acid {5-[4-(1,1-dioxo-thiomorpholin-4-ylmethyl)-phenyl]-[1,2,4]triazolo[1,5-a]pyridin-2yl}-amide], the “[total cholesterol] Mean CFB” value (Study 1 12 weeks results, 2 x 25 mg b.i.d., week 1) is reported as 0.1 mmol/L, the “[Total cholesterol] Median CFB” value [1] is reported as 0.10 mmol/L and the “[total cholesterol] Mean CFB” value [1] is reported as 0.1 mmol/L. The “[Total cholesterol] Median CFB” value [2] was 0.05 mmol/L, the “[total cholesterol] Mean CFB” value [2] was 0.1 mmol/L and the “[Total cholesterol] Median CFB” value [3] was 0.05 mmol/L. The “[total cholesterol] Mean CFB” value [3] was 0.1 mmol/L, the “[Total cholesterol] Median CFB” value [4] was 0.13 mmol/L and the “[total cholesterol] Mean CFB” value [4] was 0.2 mmol/L. For the same molecule, the “[Total cholesterol] Median CFB” value [5] was 0.21 mmol/L, the “[total cholesterol] Mean CFB” value [5] was 0.1 mmol/L and the “[Total cholesterol] Median CFB” value [6] was 0.18 mmol/L. For the same molecule, the “[total cholesterol] Mean CFB” value [6] was 0.1 mmol/L, the “[Total cholesterol] Median CFB” value [7] was 0.28 mmol/L and the “[total cholesterol] Mean CFB” value [7] was 0.3 mmol/L. The “[Total cholesterol] Median CFB” value [8] was 0.22 mmol/L, the “[total cholesterol] Mean CFB” value [8] was 0.2 mmol/L and the “[Total cholesterol] Median CFB” value [9] was 0.23 mmol/L. The “[total cholesterol] Mean CFB” value [9] was 0.2 mmol/L, the “[Total cholesterol] Median CFB” value [10] was 0.28 mmol/L and the “[total cholesterol] Mean CFB” value [10] was 0.3 mmol/L. For the same molecule, the “[Total cholesterol] Median CFB” value [11] was 0.31 mmol/L, the “[total cholesterol] Mean CFB” value [11] was 0.4 mmol/L and the “[Total cholesterol] Median CFB” value [12] was 0.45 mmol/L. The “[total cholesterol] Mean CFB” value [12] was 0.4 mmol/L, the “[Total cholesterol] Median CFB” value [13] was 0.55 mmol/L and the “[total cholesterol] Mean CFB” value [13] was 0.6 mmol/L. For the same molecule, the “[Total cholesterol] Median CFB” value [14] was 0.80 mmol/L, the “[total cholesterol] Mean CFB” value [14] was 0.6 mmol/L and the “[total cholesterol] Mean CFB” value (Study 1 24 weeks results, continued 25 mg b.i.d, week 1) was 0.11 mmol/L. For the same molecule, the “[total cholesterol] Mean CFB” value (Study 1 24 weeks results, continued 25 mg b.i.d, week 2) was 0.12 mmol/L, the “[total cholesterol] Mean CFB” value (Study 1 24 weeks results, continued 25 mg b.i.d, week 4) was 0.14 mmol/L and the “[total cholesterol] Mean CFB” value (Study 1 24 weeks results, continued 25 mg b.i.d, week 8) was 0.15 mmol/L. For the same molecule, the “[total cholesterol] Mean CFB” value (Study 1 24 weeks results, continued 25 mg b.i.d, week 12) was 0.26 mmol/L, the “[total cholesterol] Mean CFB” value (Study 1 24 weeks results, continued 25 mg b.i.d, week 16) was 0.20 mmol/L and the “[total cholesterol] Mean CFB” value (Study 1 24 weeks results, continued 25 mg b.i.d, week 20) was 0.27 mmol/L. The “[total cholesterol] Mean CFB” value (Study 1 24 weeks results, continued 25 mg b.i.d, week 24) was 0.24 mmol/L, the “[total cholesterol] Mean CFB” value (Study 1 24 weeks results, continued 50 mg b.i.d., week 1) was 0.15 mmol/L and the “[total cholesterol] Mean CFB” value (Study 1 24 weeks results, continued 50 mg b.i.d., week 2) was 0.14 mmol/L. For the same molecule, the “[total cholesterol] Mean CFB” value (Study 1 24 weeks results, continued 50 mg b.i.d., week 4) was 0.28 mmol/L, the “[total cholesterol] Mean CFB” value (Study 1 24 weeks results, continued 50 mg b.i.d., week 8) was 0.21 mmol/L and the “[total cholesterol] Mean CFB” value (Study 1 24 weeks results, continued 50 mg b.i.d., week 12) was 0.23 mmol/L. The “[total cholesterol] Mean CFB” value (Study 1 24 weeks results, continued 50 mg b.i.d., week 16) was 0.24 mmol/L, the “[total cholesterol] Mean CFB” value (Study 1 24 weeks results, continued 50 mg b.i.d., week 20) was 0.32 mmol/L and the “[total cholesterol] Mean CFB” value (Study 1 24 weeks results, continued 50 mg b.i.d., week 24) was 0.34 mmol/L. For the same molecule, the “[Total cholesterol] Median CFB” value [15] was 0.00 mmol/L, the “[total cholesterol] Mean CFB” value [15] was 0.03 mmol/L and the “[Total cholesterol] Median CFB” value [16] was 0.00 mmol/L. For the same molecule, the “[total cholesterol] Mean CFB” value [16] was -0.01 mmol/L, the “[Total cholesterol] Median CFB” value [17] was 0.05 mmol/L and the “[total cholesterol] Mean CFB” value [17] was 0.05 mmol/L. The “[Total cholesterol] Median CFB” value [18] was 0.20 mmol/L, the “[total cholesterol] Mean CFB” value [18] was 0.14 mmol/L and the “[Total cholesterol] Median CFB” value [19] was 0.25 mmol/L. The “[total cholesterol] Mean CFB” value [19] was 0.24 mmol/L, the “[Total cholesterol] Median CFB” value [20] was 0.25 mmol/L and the “[total cholesterol] Mean CFB” value [20] was 0.21 mmol/L. The “[Total cholesterol] Median CFB” value [21] was 0.25 mmol/L, the “[total cholesterol] Mean CFB” value [21] was 0.20 mmol/L and the “[Total cholesterol] Median CFB” value [22] was 0.30 mmol/L. The “[total cholesterol] Mean CFB” value [22] was 0.28 mmol/L and the “[total cholesterol] Mean CFB” value (Study 1 24 weeks results, continued 100 mg b.i.d., week 1) was 0.30 mmol/L.
